This is an account of results in patent publication US7601739B2, “Compounds having antiestrogenic and tissue selective estrogenic properties, and compounds with anti-androgenic properties for treatment of prostate cancer and androgen receptor dependent diseases” (Virgina Commonwealth University, priority 2006, dated 2009).

The target of one assay is T1, mutant hART877A (Homo sapiens, UniProt P10275, T878A).
T1 construct: LNCaP cells expressing a novel mutant hART877A; endogenous in cells; host or cells: LNCaP prostate cancer cells (transfected only with reporter plasmids, as far as printed)
T1 sequence (P10275 1-920 T878A): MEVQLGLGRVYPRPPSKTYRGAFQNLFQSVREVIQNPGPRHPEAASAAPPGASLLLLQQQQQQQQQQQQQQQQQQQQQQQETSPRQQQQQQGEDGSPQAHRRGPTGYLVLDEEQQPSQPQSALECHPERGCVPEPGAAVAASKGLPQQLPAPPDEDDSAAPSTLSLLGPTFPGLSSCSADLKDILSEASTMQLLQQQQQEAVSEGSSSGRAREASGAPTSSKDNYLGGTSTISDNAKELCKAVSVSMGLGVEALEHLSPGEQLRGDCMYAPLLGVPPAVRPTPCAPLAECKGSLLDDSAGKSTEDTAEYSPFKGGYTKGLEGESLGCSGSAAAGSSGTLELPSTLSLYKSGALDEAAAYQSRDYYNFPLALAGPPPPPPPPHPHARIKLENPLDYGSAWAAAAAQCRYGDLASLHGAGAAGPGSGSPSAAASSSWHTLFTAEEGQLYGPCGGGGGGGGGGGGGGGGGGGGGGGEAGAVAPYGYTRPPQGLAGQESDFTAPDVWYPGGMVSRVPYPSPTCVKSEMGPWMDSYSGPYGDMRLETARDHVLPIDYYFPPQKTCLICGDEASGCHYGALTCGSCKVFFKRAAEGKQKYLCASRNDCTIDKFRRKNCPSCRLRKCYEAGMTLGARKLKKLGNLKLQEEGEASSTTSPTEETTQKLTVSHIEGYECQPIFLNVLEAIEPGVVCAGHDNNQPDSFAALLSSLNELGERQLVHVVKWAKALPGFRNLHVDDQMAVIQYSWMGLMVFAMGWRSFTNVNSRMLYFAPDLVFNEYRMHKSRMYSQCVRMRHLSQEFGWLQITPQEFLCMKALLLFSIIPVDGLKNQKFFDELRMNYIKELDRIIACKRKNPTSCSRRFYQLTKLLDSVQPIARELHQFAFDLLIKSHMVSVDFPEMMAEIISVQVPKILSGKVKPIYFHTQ
Kind of assay: Transient transfection reporter assay in LNCaP cells expressing mutant hAR. In kind it is cell-based. The source says: To determine the agonist and antagonist activity of these compounds, the transient transfection reporter assay in HepG2 cells were employed. […] Apart from the testing against wild type hAR, because hAR mutation is one of the important factors for antiandrogen-resistant symptoms discovered in advance prostate cancer patients, we also employed transient transfection reporter assay in the prostate cancer cell line, LNCaP cells expressing a novel mutant hART877A.
On the technique in general: In a reporter assay the amount or activity of a reporter protein is the signal.

A further assay concerns hER. Nature of the assay: Fluorescence-based competitive binding assay for hER (displacement of fluormone ES2). Set-up: species or system human. To be noted: RBA = IC50 of tamoxifen/IC50 of test molecule; tamoxifen set at 1. How it is done:
The estrogen receptor competitor assay kits (Panvera, Madison, Wis.) were used to determine the ability of test molecules to displace the fluormone, ES2, from hER -ES2 or hER -ES2 complex. Serial dilutions of each test molecule were prepared in methanol or DMSO. The recombinant hER or hER (7 nM) was preincubated with ES2 (1 nM) in screening buffer. After the preincubation, the test molecules and ER-ES2 complex solution were added into the 96-well microplate to produce a final volume of 100 μl per well. The reaction was incubated at room temperature for 1 hr and the polarization values were measured by using fluorescence microplate reader, Polarion (Tecan, Research Triangle Park, N.C.) with excitation wavelength 495 nm and emission wavelength 535 nm. The polarization value versus test molecule concentration curves was analyzed by graphfit software to generate IC50 values.
In this assay, recombinant hER and the commercial synthetic estrogen, ES2 containing fluorescence polarization property, are used. This assay is a homogenous assay. When the assay solution only contains ES2, the solution exerts weak fluorescence polarization property due to the quick rotation of free ES2 molecule. […] Addition of the antiestrogen to the ES2/hER displaces ES2 from hER and results in the whole solution exerting less fluorescence polarization property than the solution without antiestrogen.

In assay [1] the target is T2, hERα (Homo sapiens, UniProt P03372).
T2 construct: mammalian expression plasmid containing full length human ER cDNA, pCMV-hER; expressed in transfected cells; host or cells: MCF-7 human breast cancer cells
T2 sequence (P03372 1-595): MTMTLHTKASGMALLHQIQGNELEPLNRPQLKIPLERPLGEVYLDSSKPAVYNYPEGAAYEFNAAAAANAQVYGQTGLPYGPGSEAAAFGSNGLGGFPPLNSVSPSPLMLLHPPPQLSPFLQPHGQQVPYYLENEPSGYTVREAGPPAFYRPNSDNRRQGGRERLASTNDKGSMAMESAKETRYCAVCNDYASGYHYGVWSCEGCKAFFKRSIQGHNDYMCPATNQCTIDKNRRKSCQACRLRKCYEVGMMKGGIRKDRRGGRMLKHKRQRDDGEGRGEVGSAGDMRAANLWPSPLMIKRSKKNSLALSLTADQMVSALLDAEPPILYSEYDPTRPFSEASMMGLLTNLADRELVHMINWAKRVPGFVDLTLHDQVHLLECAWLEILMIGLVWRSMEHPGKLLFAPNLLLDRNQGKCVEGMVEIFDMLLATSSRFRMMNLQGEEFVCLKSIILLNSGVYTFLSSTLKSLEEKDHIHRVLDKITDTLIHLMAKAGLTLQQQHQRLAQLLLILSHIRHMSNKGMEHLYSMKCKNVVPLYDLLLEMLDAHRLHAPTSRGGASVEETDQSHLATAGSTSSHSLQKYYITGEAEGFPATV
Kind of assay: Transient transfection reporter assay for hERα in MCF-7 cells. In kind it is cell-based. Set-up: Relative Estrogenic Activity: dose or concentration left out as unconfirmed. How it is done: For the transient transfection reporter assays, the cells were plated in triplicate in 12-well plates at a density of 300000 cells/well in the phenol red-free DMEM (GIBCO/BRL, Grand Island, N.Y.) supplemented with 10% charcoal-stripped fetal bovine serum (Hyclone, Logan, Utah), Penicillin (100 unit/ml)/Streptomycin ([…]), 2 mML-glutamine and 1 mM sodium Pyruvate. 24 hrs later, the cells were transfected with three plasmids by using Superfect transfection kit (Qiagen, Valencia, Calif.). For the detection of hER activity, cells were transfected with 2 g hER expression plasmid (pCMV-ER ), 6 g luciferase reporter plasmid containing estrogen receptor response element (PGL-TATA-Luc), and 600 ng normalization control, β-galactosidase reporter plasmid (pCMV ). For the detection of hER activity, cells were transfected with 3 ug hER expression plasmid (pcDNA3.1-hER), 6 g luciferase reporter plasmid containing estrogen receptor response element (PGL-TATA-Luc), and 600 ng pCMV. For determining the influence of ER's major coactivator in breast, AIB 1, 2 g pcDNA3.1-AIB1 was added into the transfection plasmid solution mentioned previously.
The transfected cells were rinsed with PBS and treated with various concentrations of test molecules and one […] (vehicle, DMSO or methanol) in phenol red-free culture medium. After incubation for further 24 hrs, the cells were washed with PBS and lysed with lysis buffer (Pierce, Rockford, Ill.). The lysate was used to determine the luciferase activity for ER's activity and the β-galactosidase activity for the normalization of transfection efficiency.
For the luciferase activity assay, 20 μl of lysate and 100 μl luciferase assay buffer (Promega, Madison, Wis.) were added into a well of 96-well plate. The luminescence was detected by using luminescence microplate reader, LumiCount (Packard, Boston, Mass.). For the β-galactosidase activity assay, […] β-galactosidase assay buffer (Clontech, Palo Alto, Calif.) were added into a well of 96-well plate. The β-galactosidase activity was measured as luminescence strength by using luminescence microplate reader, LumiCount (Packard, Boston, Mass.). The normalized reporter activity was calculated by the luciferase activity divided by that of β-galactosidase.
The transient transfection reporter assay was used to determine the estrogenic or antiestrogenic activity of tested compounds in employed human breast cancer cells, MCF-7 cells that are cotransfected with hERα expression and reporter plasmids. […] […] The estrogenic (antiestrogenic) activity was determined by dividing the luciferase activity by the β-galactosidase activity. To determine the influence of estrogen receptor's major coactivator in breast cancer, AIB1, for the compounds' estrogenic activity, the expression vector of AIB1 was additionally cotransfected with the plasmids mentioned above.

The test system of the next assay is MCF-7 cells. Nature of the assay: hERα positive breast cancer cell proliferation assay. Format: cell-based, human. How it is done:
(§1) MCF-7 or MDA-MB-231 cells were inoculated into 12-well culture plates at 10000 cells in 2 ml maintained medium per well. Cells were allowed to attach to the bottom for 24 hrs incubation, then the seeding medium was removed and replaced by the experimental medium (phenol red-free DMEM supplemented with 5% charcoal-stripped fetal bovine serum and Penicillin (100 unit/ml)/Streptomycin ([…])). After 24 hr incubation, the test molecules dissolved in DMSO were added in the wells. […] The culture was continued for 3 days and the medium and tested compounds were replaced every two days. The final cell numbers were estimated with CellTiter proliferation assay kit (Promega, Madison, Wis.) by measuring the absorbance at 570 nm, which is directly proportional to the number of living cells in the culture.
MCF-7 cell line was used to perform this assay and the description of this assay as mentioned above. […] DMSO was used as reference.

The next assay relates to MDA-MB-231 cells. Kind of assay: hER negative breast cancer cell proliferation assay. In kind it is cell-based, human. To be noted: hER negative cell line. How it is done: as §1
In this assay, MDA-MB-231 breast cancer cell line, a hER negative cell line, was used. DMSO was used as reference.

Assay [2] addresses T3, hERα (Homo sapiens, UniProt P03372).
T3 construct: the full length hERα was inserted into pGAD-GAL4 and pGBD-GAL4 vectors; expressed in transfected cells; host or cells: S. cerevisiae Y190 transformed with pGBT-hER (pGBKT7) and pGAD-hER (pGADT7)
T3 sequence (P03372 1-595) 1: T2 sequence (P03372 1-595)
T3 sequence (P03372 1-595) 2: T2 sequence (P03372 1-595)
Nature of the assay: Yeast two-hybrid and filter lift assay of hERα dimerization. Format: cell-based. Here is the method: The transformed yeasts with yeast two-hybrid vectors were cultured in synthetic medium lacking trytophan, and leucine. […] After that, the membranes were soaked in 0.4 ml Z-buffer/Xgal (60 mM Na2HPO4, 40 mM NaH2PO410 mM KCl, 1 mM MgSO4, 0.1% SDS, 50 mM -mercaptoethanol, 20 mM Xgal). The pictures of the results were taken within 2 and 3 hours after the -galactosidase assay was processed.
Dimerization of estrogen receptor plays an essential role in regulating estrogen receptor's functions including DNA binding, transactivation, and coactivator recruitment. In this study, yeast two hybrid and filter lift assays were used to determine the ability of compounds 2 and 6 to interrupt the dimerization of hERα. For setting up yeast two hybrid assay, the full length hERα was inserted into pGAD-GAL4 and pGBD-GAL4 vectors. In pGBD-GAL4, hERα was fused to the GAL4 DNA binding domain through its N terminus. In pGAD-GA14, hERα was fused to the GAL4 activation domain through its N terminus. When the dimerization of hERα occurs mainly through its C terminus, the GAL4 DNA binding domain binds to the repeated GAL4 response element located in front of the β-gal reporter gene and the whole complex, GAL4-BD/hERα/hERα/GAL4-AD, turns on the synthesis of the product of β-gal reporter gene. […] Filter lift assay in which X-gal was used, was employed to qualitatively determine the activity of β-galactosidase.

As to `C[C@]1(O)CC[C@H]2[C@@H]3CCC4=CC(=O)CCC4=C3C=C[C@@]21C` [Compound R1881, R1881], on mutant hART877A, the “agonistic effects against mutant hART877A” value is listed as “significant agonism activity”.

Turning to `CCCCNC(=O)CCCCCCCCCCOCC1Cc2ccccc2CN1C(=O)c1cccc(F)c1` (stereo not shown) [Compound 2], in the assay with hER, the “Relative Binding Affinity” value came to 0.287. Further, the “Relative Estrogenic Activity” value on hERα [1] (MCF-7 cells transfected with hERα, DMSO set as 1) is given as 0.9. Besides, the “estrogenic effect” value on hERα [1] (MCF-7 cells, hERα, compared with DMSO and tamoxifen) is recorded as “do not exert any estrogenic effects”. For the same compound, the “Relative Antiestrogenic Activity at 2.5 μM” value at hERα [1] (with 1 nM estradiol, 1 nM E2 used as reference (1)) is on record as 0.75. Besides, the “inhibition effects against MCF-7 cell proliferation” value in the assay with MCF-7 cells is “slightly lower inhibition effects than compound 6”. The activity at 5 µM in the assay on MCF-7 cells (Homo sapiens, MCF7, 72 h, MCF-7 cells, DMSO = 1, read-out: Relative Cancer Cell Proliferation Effects at 5 μM) turned out to be 66%. In addition, the “proliferation effects against MDA-MB-231 cells (FIG. 6, words)” value with MDA-MB-231 cells is “do not inhibit or stimulate the growth”. Moreover, the “inhibitory activity against hERα dimerization in combination with estrogen” value on hERα [2] (combined with estrogen) is “weak inhibitory activity”. Further, the “induction of hERα dimerization, compound alone” value on hERα [2] (tested alone) is “did not induce the dimerization of hERα”.
